Measured values taken from US10828326B2, “Compositions and methods for treating and preventing venom related poisoning” (priority 2015, dated 2020).

Tested on: C. atrox venom
Test: Isolated venom exposure to FeCl3, CORM-2 or iCORM-2, then thrombelastography in human plasma (Example VI)
Type: biochemical, Crotalus atrox
Conditions: in words
Protocol: C. atrox venom was obtained from the National Natural Toxins Research Center at Texas A&M University-Kingsville, Tex., USA. Venom was reconstituted in calcium-free phosphate buffered saline (PBS, Sigma-Aldrich, Saint Louis, Mo., USA), and stored at −80° C. Pooled human normal plasma anticoagulated with sodium citrate was obtained from George King Bio-Medical, Overland Park, Kans., USA. Ferric chloride (FeCl3, 99.9% pure), tricarbonyldichlororuthenium (II) dimer (CORM-2), and dimethyl sulfoxide (DMSO) were obtained from Sigma-Aldrich. The final concentrations of FeCl3 (dissolved in PBS) and CORM-2 (dissolved in DMSO) were 0-10 μM and 0-100 μM, respectively; these were the concentrations used in previous works involving the effects of modifying fibrinogen prior to venom exposure in plasma.
To increase the detection of effects of iron/CO on venom activity, the concentration of venom chosen for isolated exposure and for addition to plasma was twice the amount expected to eliminate coagulation based on previous work (see, Nielsen V G, Boyer L V. Iron and carbon monoxide attenuate degradation of plasmatic coagulation by Crotalus atrox venom. Blood Coagul Fibrinolysis. In press). A 1 ml quantity of a 200 μg/ml solution of venom in PBS was prepared for each condition subsequently presented. The conditions were: 1) 1% addition (v/v) of PBS and DMSO to PBS without venom; 2) 1% addition (v/v) of PBS and DMSO to PBS with venom; 3) 1% addition of FeCl3 and CORM-2 to PBS without venom; 4) 1% addition of FeCl3 and CORM-2 to PBS […]) 1% addition of FeCl3 and DMSO to PBS with venom; 6) 1% addition of CORM-2 to PBS with venom; and lastly, 7) 1% addition of PBS and iCORM-2 to PBS with venom. After 3 min of incubation at room temperature, 3.6 μl of solution from one of these conditions was placed into 326 μl of plasma and 10 μl of tissue factor reagent (0.1% final concentration in distilled water; Diagnostica Stago S.A.S., Asnieres sur Seine, France) in a disposable cup in a computer-controlled Thrombelastograph® hemostasis system (Model 5000, Haemonetics Inc., Braintree, Mass., USA). After test solution addition, 20 μl of 200 mM CaCl2 was immediately added to initiate clotting. Data were collected at 37° C. for 15 min. […] 2014; 25(8):801-805) were determined: time to maximum rate of thrombus generation (TMRTG): this is the time interval (min) observed prior to maximum speed of clot growth; maximum rate of thrombus generation (MRTG): this is the maximum velocity of clot growth observed (dynes/cm^2/sec); and total thrombus generation (TTG, dynes/cm^2), the final viscoelastic resistance observed after clot formation. […]

## [Cl][Fe]([Cl])[Cl] [iron, ferric chloride]
Isolated venom exposure
  effects on C. atrox venom activity on plasmatic coagulation: no appreciable effects
Venom 2 μg/ml final, 10 μM FeCl3, 100 μM CORM-2 or iCORM-2
  coagulation kinetic parameters of plasma after addition of PBS with venom exposed to the agent: absence of coagulation not different from samples exposed to venom alone
